Data as given in patent US12171226B2, “Development of pheromone assisted techniques to improve efficacy of insecticide sprays targeting urban pest ant species” (The Regents of the University of California, priority 2012, dated 2024).

Assays:
[1] = tested on: Argentine ants; assay: Experiment #2: field attraction of ants from nest entrance and nearby trails to a pheromone-sprayed sand patch; format: in vivo, Linepithema humile
Method: Experiment #2 was conducted to observe would synthetic trail pheromone spray deposit attract the ants from a nest entrance and nearby trails? The study was conducted in the biological control grove at the University of California, Riverside, in Apr. 23, 2012. Nest entrances of Argentine ant colonies were located, which had active trails associated with them (one nest entrance per nest). By using the nest entrance and trails associated with the nest entrance, the pheromone assisted technique” was tested to see if it would attract ants from the nest entrance and nearby trails. For the pheromone treatment, two patches were made of sand on both sides of the nest entrance by evenly spreading 52.5 g of sand in a square (20 by 20 cm). The distance between the two patches was about 5 cm. The method and rate of application were identical with those of experiment #1.
Both sand patches were photographed at 1, 2, and 3 min after application of sprays. The study was replicated ten times by using a different nest entrance for each replicate. The numbers of ants on the 20 by 20-cm sand patches were counted at 1, 2, and 3 minute post-treatment using the photographs. The average values were compared between treatment and control with a paired T-test (one-sided, Analytical Software 2008). […]

[2] = tested on: Argentine ant populations; settings: relatively large quantities, stand-alone treatment, field; cited from earlier work
[3] = tested on: Argentine ants; assay: Experiment #3: laboratory colony mortality after spray applied away from the ant nest; format: in vivo, Linepithema humile; settings: 0.01% fipronil and/or approx. 12 ng per cm^2 (Z)-9-hexadecenal; 3 ml on 491 cm^2 sand; colony about 731 ants; n=5-6
Method: Experiment #3 was conducted to observe would co-application of synthetic trail pheromone improve the efficacy of fipronil insecticide spray applied away from the ant nest? A laboratory study was conducted to determine if the efficacy of an insecticide spray (fipronil) can be improved by adding with a synthetic attractant trail pheromone. Argentine ants were collected from a citrus grove (biological control grove) on the University of California, Riverside, campus. Ant nests were excavated from the ground and transported to a laboratory chamber where they were extracted from the soil. Laboratory stock colonies were maintained in plastic boxes (26.5 by 30 by 10 cm) with the inner sides coated with Teflon™ Fluoropolymer resin, type 30, DuPont Polymers) to prevent ants from escaping. Each colony was provided with two or three artificial nests constructed from plaster-filled petri dishes (9 cm in diameter by 1.5 cm in depth) formed with a 5-cm-diameter by 1-cm-deep cylindrical area in the center of the dish to serve as a nesting space. […]
Three different spray preparations were tested: (a) pheromone+fipronil, (b) fipronil only, and (c) pheromone only. […] The dead ants were removed from the colony box and counted daily. […]

[4] = tested on: Argentine ants; assay: Experiment #1: field attraction of ants from an existing trail to a pheromone-sprayed sand patch; format: in vivo, Linepithema humile
Method: Experiment #1 was conducted to observe would synthetic trail pheromone spray deposit attract the ants from an existing trail? The study was conducted in the biological control grove at the University of California, Riverside, in April 2012. The site supports a large population of Argentine ants, primarily because of the absence of chemical insecticide use and the existence of honeydew-producing insects in the citrus trees. Five different trails of Argentine ants were located, which were relatively straight and at least 30-cm long, and originating from different nests. By using these trails as “existing trails,” tests were performed to see if the “pheromone assisted technique” would attract ants from the existing trails. For the pheromone treatment, two patches of sand were made, one on each side of the existing trail by evenly spreading 52.5 grams (g) of sand in a square (20 by 20 cm). The distance between two patches was about 5 cm. One patch served as a treatment, and the other one served as a control. For the treatment, 1 mg of the synthetic pheromone compound [(Z)-9-hexadecenal] dissolved in 1 ml of ethyl alcohol was mixed with 500 ml of deionized water. […]
Each sand patch was treated with four sprays (each spray targeting 10 by 10 cm areas on one corner). […] The numbers of ants on the 20 by 20-cm sand patches were counted at 2 and 4 min post-treatment using the photographs. […]

CCCCCC/C=C\CCCCCCCC=O [(Z)-9-hexadecenal]
number of ants on treated sand patch relative to control patch ([1]; approx. 12 ng per cm^2, paired T-test P<0.001): more than five times higher
average number of ants on the 20 by 20-cm sand patch (mean±SEM) ([1]; approx. 12 ng per cm^2 on sand, counts at 1, 2 and 3 min post-treatment, 10 replicates, nest entrance and nearby trails): 18.1±3.0
impact on Argentine ant populations [2]: negligible impact
cumulative number of dead ants at day 7 post-treatment (mean±SEM) [3]: 65.8±11.0
number of ants on treated sand patch relative to control patch ([4]; approx. 12 ng per cm^2, paired T-test P=0.033): more than two times higher
average number of ants on the 20 by 20-cm sand patch (mean±SEM) ([4]; approx. 12 ng per cm^2 on sand, counts at 2 and 4 min post-treatment averaged, 5 replicates, existing trail): 10.4±4.0

N#Cc1nn(-c2c(Cl)cc(C(F)(F)F)cc2Cl)c(N)c1[S+]([O-])C(F)(F)F (stereo not shown) [fipronil only, fipronil]
cumulative number of dead ants at day 7 post-treatment (mean±SEM) [3]: 291±27.1
